Source: US7579468B2, “Methods of modulating neurotrophin-mediated activity” (PainCeptor Pharma Corporation, priority 2005, dated 2009)
Entries after “also recorded” stand apart in the source; their conditions may differ.

Legend:
Male Sprague-Dawley rats = experiment: Chung or Spinal Nerve Ligation (SNL) model of neuropathic pain; format: in vivo, rat; settings: Von Frey filaments, 90 min post-treatment, 5 and 10 mg/kg i.p.
Description: The Spinal Nerve Ligation (SNL) model (Kim and Chung, Pain 1992; 50: 355) was used to induce chronic neuropathic pain. Male Sprague-Dawley rats (Harlan, Indianapolis, Ind., USA) were anesthetized with isoflurane, the left […] was removed, and the L5 and L6 spinal nerves were tightly ligated with 6-0 silk suture. The wound was then closed with internal sutures and external staples.
Mechanical allodynia testing: Pre- and post-injury baselines as well as post-treatment values (vehicle or compound-treated animals) for non-noxious mechanical sensitivity were evaluated using 8 Semmes-Weinstein filaments (Stoelting, Wood Dale, Ill., USA) with varying stiffness according to the up-down method (Chaplan et al., J Neurosci Methods 1994; 53: 55). […] The mean and standard error of the mean (SEM) were determined for each paw in each treatment group. […] Effects of compounds were evaluated two weeks after the injury. Compound or vehicle was administered (i.p. or s.c.) and effects on mechanical allodynia were measured at different time points after dosing (e.g., 30, 60 and 90 min.). […]
Data analysis: Statistical analyses were conducted using Prism™ 4.01 (GraphPad, San Diego, Calif., USA). Mechanical hypersensitivity of the injured paw was determined by comparing contralateral to ipsilateral paw values within the vehicle group at each time point. Data were analyzed using the Mann-Whitney test. […]

[1] = test system: NGF-induced Erk 1/2 phosphorylation in PC12 cells; experiment: Erk phosphorylation in NGF-stimulated PC12 cells (Western blot); format: cell-based, rat; settings: 5 ng/mL NGF
Method: This assay is useful for establishing that the compounds of the invention are functional NGF antagonists, not receptor agonists (an agonist could conceivably block NGF binding but actually activate the receptor). Erk 1/2 is a kinase activated down stream of TrkA and is a well studied member of the NGF-induced signal transduction cascade.
PC12 cells expressing TrkA and p75 were acutely exposed to 5 ng/mL NGF (15 min; 37° C.; 5% CO2) that was pre-incubated (30 min; room temperature) with or without the compounds. Cells were lysed in Laemmli sample buffer (for SDS-PAGE) or a lysis buffer containing Triton X-100 (for ELISA). Following SDS-PAGE, proteins were electroblotted onto nitrocellulose and immunoprobed for phosphorylated Erk 1 and 2. Blocking and primary antibody incubations of immunoblots were performed in Tris-buffered saline-Tween (10 mM Tris, pH 8.0, 150 mM NaCl, and 0.2% Tween 20) supplemented with 5% (w/v) bovine serum albumin (BSA); secondary antibody incubations were performed in 5% (w/v) dried skim milk powder. Immunoreactive bands were detected by chemiluminescence.

[2] = test system: HEK_TrkA: TrkA alone (human TrkA); experiment: 125I-NGF binding displacement in HEK_TrkA cells; settings: individual experiment
Method: (§1) All cells were incubated at 37° C. in 5% CO2. PC12 cells were maintained in RPMI-1640 medium supplemented with 10% fetal bovine serum (FBS). A875 human melanoma cells were maintained in DMEM with 10% FBS. HEK 293 cells were stably transfected with human TrkA plasmid (see below) and maintained in DMEM with 10% FBS and G418 (600 μg/mL) for selection.
Expression of human TrkA in HEK cells was achieved by transfecting the cells with the TrkA expression vector using Lipofectamine (Invitrogen) reagent. HEK cells were plated in 100 mm Petri dishes at a concentration of 10^6 cells per dish. The next day, a solution of DNA diluted in 1 mL OptiMEM (Invitrogen) per dish was prepared and incubated for 15 min at room temperature. […]
NGF binding was evaluated using methods familiar to those who are skilled in the art. […] Non-specific binding was determined for reference by incubating ^125I-NGF with an excess of non-radioactive NGF in the absence of compound. Following a two-hour incubation period at 4° C., ^125I-NGF bound to the cells was quantified in a gamma radiation counter following separation from unbound NGF by filtration or centrifugation through glycerol (10% in HKR). Inhibition of binding was calculated as a percent of the specific binding (calculated as the differential between ^125I-NGF binding in the absence and presence of an excess of non-radioactive NGF without compound). […]

PC12 (TrkA & p75) [3] = test system: T1, PC12 (TrkA & p75); experiment: 125I-NGF binding displacement in PC12 cells; parameters: species or system rat; settings: PC12 cells expressing TrkA and p75; individual experiment
T1 construct: other: Concentration 25 μM; PC12 cells; other: Concentration 50 μM; other: PC12 cells; 125I-NGF ~0.11 nM; other: PC12 cells expressing TrkA and p75; individual experiment; fused on or other part: 125I label on NGF
Method: as §1
(§2) NGF binding was evaluated using methods familiar to those who are skilled in the art. Briefly, cells expressing one or both NGF receptors (PC12: TrkA+p75; A875: p75 alone; HEK_TrkA: TrkA alone) were harvested by replacing the medium with calcium-magnesium free balanced salt (Grey's) solution and incubating at 37° C. for 15 min. For NGF binding, cells were resuspended at a concentration of 2×10^6 cells/mL in HEPES-Krebs-Ringer (HKR) buffer (10 mM HEPES; 125 mM NaCl; 4.8 mM KCl; 1.3 mM CaCl2; 1.2 mM MgSO4; 1.2 mM KH2PO4; 1 mg/ml BSA; 1 mg/ml glucose; pH 7.4) and exposed to ^125I-NGF (˜0.11 nM) in the presence or absence of varying concentrations of the compound. Non-specific binding was determined for reference by incubating ^125I-NGF with an excess of non-radioactive NGF in the absence of compound. Following a two-hour incubation period at 4° C., ^125I-NGF bound to the cells was quantified in a gamma radiation counter following separation from unbound NGF by filtration or centrifugation through glycerol (10% in HKR). Inhibition of binding was calculated as a percent of the specific binding (calculated as the differential between ^125I-NGF binding in the absence and presence of an excess of non-radioactive NGF without compound). Dose-response inhibition curves were typically generated with seven concentrations of a given compound, with three replicates for each concentration. For most compounds, multiple dose-response curves were generated.

PC12 (TrkA & p75) [4] = test system: T2, PC12 (TrkA & p75); experiment: 125I-NGF binding displacement in PC12 cells; parameters: species or system rat; settings: PC12, A875 and HEK_TrkA cells taken together
T2 construct: other: PC12, A875 an; fused on or other part: 125I label on NGF
Method: as §1, §2

A875: p75 alone = experiment: 125I-NGF binding displacement in A875 cells; parameters: species or system human; settings: A875 cells expressing p75; individual experiment
Method: as §1, §2

In the case of `CC(=O)Nc1cc2c3c(cc(NC(C)=O)cc3c1)C(=O)N(CCCC(=O)O)C2=O` [Compound 11, 4-(5,8-Bis-acetylamino-1,3-dioxo-1H,3H-benzo[de]isoquinolin-2-yl)-butyric acid], the “Effect on mechanical allodynia in the SNL model” value (Male Sprague-Dawley rats) is reported as “significant dose-dependent reversal of the mechanical allodynia; also recorded: significant antinociceptive effects”, the “Inhibition of NGF-induced Erk 1/2 phosphorylation” value [1] is reported as “inhibits NGF-induced Erk 1/2 phosphorylation in PC12 cells” and the “NGF binding displacement, dose-response curve” value (“NGF binding displacement” for short) [2] is reported as “effectively blocks NGF binding to TrkA”. The “NGF binding displacement” value (PC12 (TrkA & p75) [3]) was “effectively blocks NGF binding to cells expressing TrkA and p75”, the “Block of NGF binding to TrkA and/or p75 (summary of FIGS. 1B, 2A, 2B, 4A, 4B, 6A, 6B, 7A, 8A, 8B)” value (PC12 (TrkA & p75) [4]) was “effectively block NGF binding to TrkA and/or p75” and the “NGF binding displacement” value (A875: p75 alone) was “effectively blocks NGF binding to cells expressing p75”.
